Among the data in PubChem BioAssay AID1963867 (Molecular Pharmacology Branch, DTP, NCI, 2024) are viability, T/C and IC50 values, retold here.

The structures appear in SMILES notation. Where “and” joins values, the source holds several entries; their conditions need not be identical. Equal values may be shown once. Bounds are passed on as bounds.

In the test the test system is KRAS-mutant PDC tumor spheroid with HUVEC/MSC, viability. In words: Anticancer human tumor 327498-153-R-J2-PDC patient-derived uterine carcinosarcoma cell line growth inhibition [KRAS2]. The settings on record: for viability, T/C: stronger effect = lower value. An excerpt: Multicellular complex tumor spheroid response to RAS pathway inhibitors in combination with a targeted agents in patient-derived cell lines with oncogenic KRAS variants from multiple cancer types
A high-throughput screen of multi-cell type tumor spheroids was designed to identify active combinations of targeted small molecules and KRAS pathway inhibitors. Complex spheroids include a stromal component modeled by human endothelial cells (HUVEC) and fibroblasts modeled by human mesenchymal stem cells (MSCs). The concentration ranges selected for each drug and investigational agent were based upon clinically achievable concentrations if the clinical Cmax of the agent was known.
Compounds. The drugs and investigational agents: BI-3406 (NSC825286), BAY-293 (NSC824723), batoprotafib (TNO155; NSC825523), sotorasib (AMG 510; NSC818433), MRTX1257 (NSC819558), elimusertib (BAY 1895344; NSC800525), molibresib (GSK525762; NSC774829), temuterkib (LY3214996; NSC803410), venetoclax (NSC766270), alisertib (NSC759677), olaparib (NSC753686), talazoparib (NSC767125), erdafitinib (NSC781556), ipatasertib (NSC767898), cabozantinib (NSC761068), nintedanib (NSC756659), abemaciclib (NSC768073), docetaxel (NSC628503), trametinib (NSC758246), and sapanisertib (NSC764658) were obtained from the National Cancer Institute (NCI) Developmental Therapeutics Program Chemical Repository. The FDA-approved anticancer drug set is available from the Developmental Therapeutics Program. […] The stock solutions were prepared in dimethyl sulfoxide (DMSO, Sigma-Aldrich, St. Louis, MO, cat. D2650) at 800-fold the tested concentration and stored at -70 degrees C prior to their use. All drugs and investigational agents were tested over a range starting from a high concentration at or near the clinical Cmax and decreasing in half-log increments. If the clinical Cmax for an agent had not been determined, the highest concentration tested was 10 microM.
Cell Culture. All cells were maintained in an incubator at 37 degrees C and 5% CO2 with 95% humidity. The PDC lines were cultured according to standard operating procedures established by the NCI PDMR (https://pdmr.cancer.gov/sops/default.htm). Briefly, all PDCs were thawed and cultured in Matrigel-coated flasks prepared with a working solution of 1X Ham's F-12 nutrient mix, without supplementation (Invitrogen, Waltham, MA, cat. 11765054), 100 U/mL penicillin-streptomycin (Invitrogen, cat. 15140122), and 2.5% Matrigel (Corning Inc., Corning, NY, cat. 354248) for the first three passages. All PDCs were cultured in complete DMEM/F-12 media containing advanced DMEM/F-12 (Invitrogen, cat. 12634028), 4.9% defined fetal bovine serum, heat inactivated (HyClone Laboratories Inc., Logan, UT, cat. SH30070.03HI), 389 ng/mL hydrocortisone (Sigma-Aldrich, cat. H4001), 9.7 ng/mL human EGF recombinant protein (Invitrogen, cat. PHG0313), 23.4 microg/mL adenine (Sigma-Aldrich, cat. A2786), 97.3 U/mL penicillin-streptomycin (Invitrogen, cat. 15140122), 1.9 mM L-glutamine (Invitrogen, cat. 25030081), and 9.7 microM Y-27632 dihydrochloride (Tocris Bioscience, Bristol, United Kingdom, cat. 1254). The PDCs were cultured in complete DMEM/F12 media without 9.7 microM Y-27632 dihydrochloride for at least two passages prior to the screen. The established cell line HOP-62 was cultured in RPMI 1640 medium, HEPES (Invitrogen, cat. 22400105) with 10% defined fetal bovine serum (HyClone Laboratories Inc., cat. SH30070.03) and 2 mM L-glutamine (Invitrogen, cat. 25030081). The pooled donor HUVEC were cultured in endothelial cell growth medium 2 (PromoCell, Heidelberg, Germany, cat. C-22011) and the hMSC were cultured in mesenchymal stem cell growth medium 2 (PromoCell, cat. C-28009). For all experiments, HUVEC and hMSC were used at passages </=5, while the malignant cell lines were used at passages </=15. […]

The mark [1] stands for this setting: curve of first compound, second compound 0.1 µM.
Setting [2] is: curve of first compound, second compound 0.316 µM.
[3] abbreviates: curve of first compound, second compound 1 µM.
Setting [4] is: curve of first compound, second compound 3.16 µM.
Setting [5] is: curve of first compound, second compound 10 µM.
The mark [6] stands for this setting: second compound 0.1 µM, first compound 0.0316 µM.
Setting [7] is: second compound 0.1 µM, first compound 0.1 µM.
[8] abbreviates: second compound 0.1 µM, first compound 0.316 µM.
Setting [9] is: second compound 0.1 µM, first compound 1 µM.
[10] abbreviates: second compound 0.316 µM, first compound 0.0316 µM.
The mark [11] stands for this setting: second compound 0.316 µM, first compound 0.1 µM.
Setting [12] is: second compound 0.316 µM, first compound 0.316 µM.
[13] abbreviates: second compound 0.316 µM, first compound 1 µM.
Setting [14] is: second compound 1 µM, first compound 0.0316 µM.
Setting [15] is: second compound 1 µM, first compound 0.1 µM.
The mark [16] stands for this setting: second compound 1 µM, first compound 0.316 µM.
Setting [17] is: second compound 1 µM, first compound 1 µM.
Where [18] appears, read: second compound 3.16 µM, first compound 0.0316 µM.
[19] abbreviates: second compound 3.16 µM, first compound 0.1 µM.
The mark [20] stands for this setting: second compound 3.16 µM, first compound 0.316 µM.
The mark [21] stands for this setting: second compound 3.16 µM, first compound 1 µM.
[22] abbreviates: second compound 10 µM, first compound 0.0316 µM.
Setting [23] is: second compound 10 µM, first compound 0.1 µM.
Setting [24] is: second compound 10 µM, first compound 0.316 µM.
The mark [25] stands for this setting: second compound 10 µM, first compound 1 µM.
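Note: spheroids exposed to agents for seven days before reading.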
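Throughout, for viability, T/C: 100% = DMSO vehicle wells so lower means fewer viable cells.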

Regarding `Cn1nccc1Nc1nccc(-c2cc3c(s2)C(C)(C)N(CCN2CCOCC2)C3=O)n1`, the viability, T/C – broadly, the ratio of treated to control – reads like this: (compound 0.0316 µM) 101% [middle of 5 runs]; (compound 0.1 µM) 96.8% [middle of 5 runs]; (compound 0.316 µM) 79.2% [middle of 5 runs]; (compound 1 µM) 69.1% [middle of 5 runs]; (compound 3.16 µM) 57.6% [middle of 5 runs]; (compound 10 µM) 43.9% [middle of 5 runs]. Besides, the IC50 (commonly the concentration at which inhibition is half-maximal) (curve of compound) is 5.75 µM [middle of 5 runs].

For `CCN1CCN(Cc2ccc(Nc3ncc(F)c(-c4cc(F)c5nc(C)n(C(C)C)c5c4)n3)nc2)CC1` + CC1OCC2(CCN(c3cnc(Sc4ccnc(N)c4Cl)c(N)n3)CC2)C1N, the IC50 runs as follows: under setting [1], 0.00823 µM; under setting [2], under 0.00316 µM; under setting [3], under 0.00316 µM; under setting [4], under 0.00316 µM; under setting [5], under 0.00316 µM. The viability, T/C is, setting by setting: (second compound 0.1 µM, first compound 0.00316 µM) 61.5%; (second compound 0.1 µM, first compound 0.01 µM) 49%; under setting [6], 36.7%; under setting [7], 37.9%; under setting [8], 44.6%; under setting [9], 45.5%. For the same compound, the viability, T/C (second compound 0.316 µM, first compound 0.00316 µM) is 42.5%; the viability, T/C (second compound 0.316 µM, first compound 0.01 µM) was 31.6%; the viability, T/C under setting [10] is 26.9%; the viability, T/C under setting [11] was 29.2%; the viability, T/C under setting [12] was 26.6%; the viability, T/C under setting [13] is 33.5%. Further, the viability, T/C runs as follows: (second compound 1 µM, first compound 0.00316 µM) 34.2%; (second compound 1 µM, first compound 0.01 µM) 23.7%; under setting [14], 24.5%; under setting [15], 21.3%; under setting [16], 22%; under setting [17], 26.5%. Besides, the viability, T/C reads like this: (second compound 3.16 µM, first compound 0.00316 µM) 20%; (second compound 3.16 µM, first compound 0.01 µM) 16.6%; under setting [18], 16.2%; under setting [19], 16.7%; under setting [20], 18.5%; under setting [21], 22.1%. The viability, T/C was 19% (second compound 10 µM, first compound 0.00316 µM); 16.2% (second compound 10 µM, first compound 0.01 µM); 17.8% under setting [22]; 16.9% under setting [23]; 20.8% under setting [24]; 22% under setting [25].

In the case of `O=C(c1cc(Cc2n[nH]c(=O)c3ccccc23)ccc1F)N1CCN(C(=O)C2CC2)CC1` + COc1cc2nc(C)nc(NC(C)c3cc(N)cc(C(F)(F)F)c3)c2cc1OC1CCOC1, the concentration for half-maximal inhibition (IC50) under setting [1] stood at 2.22 µM; the IC50 under setting [2] worked out at 1.75 µM; the IC50 under setting [3] was determined as 2.47 µM; the IC50 under setting [4] is 1.74 µM; the IC50 under setting [5] amounted to 0.719 µM. The viability, T/C was 84.2% under setting [6]; 107% under setting [7]; 89.7% under setting [8]; 78.7% under setting [9]; 37.3% (second compound 0.1 µM, first compound 3.16 µM); 20.7% (second compound 0.1 µM, first compound 10 µM). Besides, the viability, T/C was 77.2% under setting [10]; 79.2% under setting [11]; 81.9% under setting [12]; 68.5% under setting [13]; 30.3% (second compound 0.316 µM, first compound 3.16 µM); 15.9% (second compound 0.316 µM, first compound 10 µM). The viability, T/C runs as follows: under setting [14], 109%; under setting [15], 104%; under setting [16], 102%; under setting [17], 94.6%; (second compound 1 µM, first compound 3.16 µM) 37.8%; (second compound 1 µM, first compound 10 µM) 18.7%. Besides, the viability, T/C under setting [18] was 78.4%; the viability, T/C under setting [19] was 77.3%; the viability, T/C under setting [20] is 76.1%; the viability, T/C under setting [21] was 66.3%; the viability, T/C (second compound 3.16 µM, first compound 3.16 µM) is 32.5%; the viability, T/C (second compound 3.16 µM, first compound 10 µM) was 18.5%. The viability, T/C reads like this: under setting [22], 99.8%; under setting [23], 61%; under setting [24], 63%; under setting [25], 56.9%; (second compound 10 µM, first compound 3.16 µM) 25.3%; (second compound 10 µM, first compound 10 µM) 14.7%.

As for `C=CC(=O)N1CCN(c2nc(=O)n(-c3c(C)ccnc3C(C)C)c3nc(-c4c(O)cccc4F)c(F)cc23)C(C)C1` (stereo not drawn), the IC50 (compound alone, run of 07/12/2021) was > 10 µM and 1.31 µM and 1.22 µM.
